Reference: patent US6025358A, “Double prodrugs of potent GP IIb/IIIa antagonists” (G. D. Searle & Co., priority 1999, dated 2000)
Counter-ions that a name gives are not always drawn.

test system: platelet aggregation; test: Ex vivo screening of oral GP IIb/IIIa inhibitors: inhibition of collagen-induced platelet aggregation in PRP after oral dosing in beagles; conditions: Canis lupus familiaris, Platelet, beagle dogs, 5 mpk, n = 2, 32 hours post-dosing, collagen agonist, read-out: Percent inhibition of platelet aggregation at 32 hour post-dosing
Protocol: Beagles (8-13 kg, various sources) of either sex are dosed orally with compound in a gelatin capsule. Blood samples are drawn from the cephalic vein using a 23 ga infusion butterfly. Samples for platelet aggregation and drug concentration are taken prior to dosing and 0.5, 1, 2, 3, 5, 7 and 10 hours after dosing and periodically on subsequent days until inhibition of platelet aggregation is less than 30%. Animals are fasted, with ad lib access to water, overnight prior to dosing. For measurement of plasma concentration blood is drawn into a 3 ml tube containing 45 USP units of Na Heparin. Blood is centrifuged at 1700×g for 10 minutes, plasma is aspirated and frozen at -20° C. until analyzed by HPLC. For measurement of platelet aggregation, blood is drawn into 2 2.0 ml tubes containing 0.2 ml of 3.8% Na Citrate. Blood is centrifuged at 250×g for 6 minutes and the platelet rich plasma (PRP) is aspirated. The remaining blood is centrifuged at 1700×g for 10 minutes and platelet poor plasma (PPP) is aspirated. Platelet aggregation is performed in a Bio-Data PAP-4 aggregometer (Bio-Data Corp., Havertown, Pa.) using collagen (100 μg/ml final concentration; Helena Laboratories, Beaumont, Tex.) as the agonist. Briefly, baseline (100% aggregation) is set using PPP; PRP is incubated at 37° C. for one minute without stirring and one minute with stirring, agonist is added and aggregation is allowed to develop for 4 minutes. Percent aggregation post-dosing is compared to percent aggregation pre-dosing to determine percent inhibition.
Percent inhibition of platelet aggregation at 32 hour post-dosing in
beagle dogs (5 mpk, n = 2)

Compared with `CC(C)OC(=O)CCNC(=O)N[C@H]1CCN(c2ccc(C(N)=NOC(=O)N(C)C)cc2)C1=O` [4(b), N-[[[(3S)-1-[4-[[[[(dimethylamino)carbonyl]oxy]amino]iminomethyl]phenyl]-2-oxo-3-pyrrolidinyl]amino]carbonyl]-β-alanine 1-methylethyl ester], `CCOC(=O)CCNC(=O)N[C@H]1CCN(c2ccc(C(N)=NOC(=O)N(C)C)cc2)C1=O` [4(a), N-[[[(3S)-1-[4-[[[[(dimethylamino)carbonyl]oxy]amino]iminomethyl]phenyl]-2-oxo-3-pyrrolidinyl]amino]carbonyl]-β-alanine ethyl ester] is higher in inhibition in vivo at 5 mg/kg: 20% for the first, 63% for the second.

Going from `CCOC(=O)CCNC(=O)N[C@H]1CCN(c2ccc(C(N)=NOC(N)=O)cc2)C1=O` [5(a), N-[[[(3S)-1-[4-[[[(aminocarbonyl)oxy]amino]iminomethyl]phenyl]-2-oxo-3-pyrrolidinyl]amino]carbonyl]-β-alanine ethyl ester] to `CCOC(=O)CCNC(=O)N[C@H]1CCN(c2ccc(C(N)=NOC(C)=O)cc2)C1=O` [Example 8, N-[[[(3S)-1-[4-[[(acetyloxy)amino]iminomethyl]phenyl]-2-oxo-3-pyrrolidinyl]amino]carbonyl]-β-alanine ethyl ester], the inhibition in vivo at 5 mg/kg falls from 82% to 57%.

Compared with `CCOC(=O)CCNC(=O)N[C@H]1CCN(c2ccc(C(=N)NOC(=O)OCC(Cl)(Cl)Cl)cc2)C1=O` [Example 10, N-[[[(3S)-1-[4-[imino[[[(2,2,2-trichloroethoxy)carbonyl]oxy]amino]methyl]phenyl]-2-oxo-3-pyrrolidinyl]amino]carbonyl]-β-alanine ethyl ester], `CCOC(=O)CCNC(=O)N[C@H]1CCN(c2ccc(C(=N)NOC(=O)NCCN(C)C)cc2)C1=O` [3(f), N-[[[(3S)-1-[4-(1-imino-8-methyl-4-oxo-3-oxa-2,5,8-triazanon-1-yl)phenyl]-2-oxo-3-pyrrolidinyl]amino]carbonyl]-β-alanine ethyl ester monoacetate] is lower in inhibition in vivo at 5 mg/kg: 84% for the first, 35% for the second.

First: CCOC(=O)CCNC(=O)N[C@H]1CCN(c2ccc(C(=N)NC(=O)c3ccccc3)cc2)C1=O [Example 7, N-[[[3(S)-1-[4-[imino[(phenylcarbonyl)amino]methyl]phenyl]-2-oxo-3-pyrrolidinyl]amino]carbonyl]-β-alanine ethyl ester]
Second: CCOC(=O)CCNC(=O)N[C@H]1CCN(c2ccc(C(N)=NO)cc2)C1=O [Example 1, N-[[[(3S)-1-[4-[(hydroxyamino)iminomethyl]phenyl]-2-oxo-3-pyrrolidinyl]amino]carbonyl]-β-alanine ethyl ester monohydrochloride]
The inhibition in vivo at 5 mg/kg of the first is lower: 53% for the first, 95% for the second.

Compared with `CCCCCOC(=O)CCNC(=O)N[C@H]1CCN(c2ccc(C(=N)NOC(=O)N3CCN(C)CC3)cc2)C1=O` [3(ff), N-[[[(3S)-1-[4-[imino[[[(4-methyl-1-piperazinyl)carbonyl]oxy]amino]methyl]-phenyl]-2-oxo-3-pyrrolidinyl]amino]carbonyl]-β-alanine pentyl ester dihydrochloride], `CCCCCOC(=O)CCNC(=O)N[C@H]1CCN(c2ccc(C(N)=NO)cc2)C1=O` [1(h), N-[[[(3S)-1-[4-[(hydroxyamino)iminomethyl]phenyl]-2-oxo-3-pyrrolidinyl]amino]carbonyl]-β-alanine pentyl ester monohydrochloride] is lower in inhibition in vivo at 5 mg/kg: 70% for the first, 39% for the second.

Going from `CCOC(=O)CCNC(=O)N[C@H]1CCN(c2ccc(C(=N)NOC(=O)N(C)CCCN(C)C)cc2)C1=O` [3(g), N-[[[(3S)-1-[4-(1-imino-5,9-dimethyl-4-oxo-3-oxa-2,5,9-triazadec-1-yl)phenyl]-2-oxo-3-pyrrolidinyl]amino]carbonyl]-β-alanine ethyl ester dihydrochloride] to `CC(C)OC(=O)CCNC(=O)N[C@H]1CCN(c2ccc(C(=N)NOC(=O)NCCN(C)C)cc2)C1=O` [3(j), N-[[[(3S)-1-[4-(1-imino-8-methyl-4-oxo-3-oxa-2,5,8-triazanon-1-yl)phenyl]-2-oxo-3-pyrrolidinyl]amino]carbonyl]-β-alanine 1-methylethyl ester monoacetate], the inhibition in vivo at 5 mg/kg falls from 69% to 34%.

Work on `COC(=O)CCNC(=O)N[C@H]1CCN(c2ccc(C(N)=NOC(N)=O)cc2)C1=O` [Example 5, N-[[[(3S)-1-[4-[[[(aminocarbonyl)oxy]amino]iminomethyl]-phenyl]-2-oxo-3-pyrrolidinyl]amino]carbonyl]-β-alanine methyl ester] yielded an inhibition in vivo at 5 mg/kg of 89%.

same assay, conditions: beagle dogs, 5 mpk, n = 2, 10 hours post-dosing, collagen agonist

`NC(=O)ON=C(N)c1ccc(N2CC[C@H](NC(=O)NCCC(=O)O)C2=O)cc1` [6(d), N-[[[(3S)-1-[4-[[[(aminocarbonyl)oxy]amino]iminomethyl]phenyl]-2-oxo-3-pyrrolidinyl]amino]carbonyl]-β-alanine] was tested, and the “% inhibition of platelet aggregation @ 10 hours” value was 15%.
